Reference: patent US8192962B2, “Processes for detecting toxic substances” (Daikin Industries, Ltd., priority 2001, dated 2012)

Tested on: Metabolism protein genes
Assay: DNA chip mRNA expression in yeast, metabolism protein genes (Table 7)
Format: cell-based, Saccharomyces cerevisiae S288C
Procedure, shortened: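 Whole-genome yeast DNA chip hybridization (65° C., >12 h) of Cy-labeled cDNA from S288C cells exposed 2 h at 25° C. to a sub-lethal toxicant dose in YPD; value is intensity relative to chemical-free control.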

COc1cc(CNC(=O)CCCCC=CC(C)C)ccc1O [(12), 8-methyl-N-vanillyl-6-nonenamide]
level of expressed mRNA in the presence/in the absence of chemical substance (yeast gene YJR143C): 0.6
The level of expressed mRNA in the presence of chemical substance/The level of expressed mRNA in the absence of chemical substance (yeast gene YJR148W): 0.8
The level of expressed mRNA in the presence of chemical substance/The level of expressed mRNA in the absence of chemical substance (yeast gene YJR155W): 1.0
The level of expressed mRNA in the presence of chemical substance/The level of expressed mRNA in the absence of chemical substance (yeast gene YKL035W): 1.0
level of expressed mRNA in the presence/in the absence of chemical substance (yeast gene YKL060C): 1.3
The level of expressed mRNA in the presence of chemical substance/The level of expressed mRNA in the absence of chemical substance (yeast gene YKL091C): 1.3
The level of expressed mRNA in the presence of chemical substance/The level of expressed mRNA in the absence of chemical substance (yeast gene YKL104C): 1.6
level of expressed mRNA in the presence/in the absence of chemical substance (yeast gene YKL148C): 0.8
The level of expressed mRNA in the presence of chemical substance/The level of expressed mRNA in the absence of chemical substance (yeast gene YKL152C): 1.5
level of expressed mRNA in the presence/in the absence of chemical substance (yeast gene YKL157W): 1.0
The level of expressed mRNA in the presence of chemical substance/The level of expressed mRNA in the absence of chemical substance (yeast gene YKL213C): 0.9
The level of expressed mRNA in the presence of chemical substance/The level of expressed mRNA in the absence of chemical substance (yeast gene YKL215C): 1.0
level of expressed mRNA in the presence/in the absence of chemical substance (yeast gene YKR034W): 0.7
The level of expressed mRNA in the presence of chemical substance/The level of expressed mRNA in the absence of chemical substance (yeast gene YKR039W): 1.5
The level of expressed mRNA in the presence of chemical substance/The level of expressed mRNA in the absence of chemical substance (yeast gene YLL058W): 1.0
level of expressed mRNA in the presence/in the absence of chemical substance (yeast gene YLR006C): 0.7
level of expressed mRNA in the presence/in the absence of chemical substance (yeast gene YLR044C): 1.4
level of expressed mRNA in the presence/in the absence of chemical substance (yeast gene YLR056W): 0.9
level of expressed mRNA in the presence/in the absence of chemical substance (yeast gene YLR058C): 0.4
level of expressed mRNA in the presence/in the absence of chemical substance (yeast gene YLR081W): 1.0
level of expressed mRNA in the presence/in the absence of chemical substance (yeast gene YLR089C): 0.6
The level of expressed mRNA in the presence of chemical substance/The level of expressed mRNA in the absence of chemical substance (yeast gene YLR180W): 0.6
The level of expressed mRNA in the presence of chemical substance/The level of expressed mRNA in the absence of chemical substance (yeast gene YLR273C): 0.9
level of expressed mRNA in the presence/in the absence of chemical substance (yeast gene YLR284C): 0.6
The level of expressed mRNA in the presence of chemical substance/The level of expressed mRNA in the absence of chemical substance (yeast gene YLR299W): 1.0
The level of expressed mRNA in the presence of chemical substance/The level of expressed mRNA in the absence of chemical substance (yeast gene YLR300W): 0.5
level of expressed mRNA in the presence/in the absence of chemical substance (yeast gene YLR304C): 1.0
The level of expressed mRNA in the presence of chemical substance/The level of expressed mRNA in the absence of chemical substance (yeast gene YLR307W): 0.7
The level of expressed mRNA in the presence of chemical substance/The level of expressed mRNA in the absence of chemical substance (yeast gene YLR348C): 0.9
level of expressed mRNA in the presence/in the absence of chemical substance (yeast gene YLR354C): 1.2
level of expressed mRNA in the presence/in the absence of chemical substance (yeast gene YLR372W): 0.6
level of expressed mRNA in the presence/in the absence of chemical substance (yeast gene YML022W): 0.6
The level of expressed mRNA in the presence of chemical substance/The level of expressed mRNA in the absence of chemical substance (yeast gene YML054C): 1.8
The level of expressed mRNA in the presence of chemical substance/The level of expressed mRNA in the absence of chemical substance (yeast gene YML070W): 1.3
The level of expressed mRNA in the presence of chemical substance/The level of expressed mRNA in the absence of chemical substance (yeast gene YML100W): 1.2
The level of expressed mRNA in the presence of chemical substance/The level of expressed mRNA in the absence of chemical substance (yeast gene YMR008C): 1.1
level of expressed mRNA in the presence/in the absence of chemical substance (yeast gene YMR011W): 0.8
level of expressed mRNA in the presence/in the absence of chemical substance (yeast gene YMR015C): 0.9
The level of expressed mRNA in the presence of chemical substance/The level of expressed mRNA in the absence of chemical substance (yeast gene YMR020W): 1.1
level of expressed mRNA in the presence/in the absence of chemical substance (yeast gene YMR083W): 0.7
The level of expressed mRNA in the presence of chemical substance/The level of expressed mRNA in the absence of chemical substance (yeast gene YMR105C): 1.7
The level of expressed mRNA in the presence of chemical substance/The level of expressed mRNA in the absence of chemical substance (yeast gene YMR189W): 0.6
level of expressed mRNA in the presence/in the absence of chemical substance (yeast gene YMR205C): 1.1
level of expressed mRNA in the presence/in the absence of chemical substance (yeast gene YMR261C): 0.9
The level of expressed mRNA in the presence of chemical substance/The level of expressed mRNA in the absence of chemical substance (yeast gene YMR271C): 1.3
The level of expressed mRNA in the presence of chemical substance/The level of expressed mRNA in the absence of chemical substance (yeast gene YMR296C): 0.8
level of expressed mRNA in the presence/in the absence of chemical substance (yeast gene YMR323W): 1.2
The level of expressed mRNA in the presence of chemical substance/The level of expressed mRNA in the absence of chemical substance (yeast gene YNL012W): 1.3
level of expressed mRNA in the presence/in the absence of chemical substance (yeast gene YNL025C): 0.8
The level of expressed mRNA in the presence of chemical substance/The level of expressed mRNA in the absence of chemical substance (yeast gene YNL045W): 0.9
The level of expressed mRNA in the presence of chemical substance/The level of expressed mRNA in the absence of chemical substance (yeast gene YNL104C): 1.1
The level of expressed mRNA in the presence of chemical substance/The level of expressed mRNA in the absence of chemical substance (yeast gene YNL106C): 0.8
The level of expressed mRNA in the presence of chemical substance/The level of expressed mRNA in the absence of chemical substance (yeast gene YNL169C): 1.0
level of expressed mRNA in the presence/in the absence of chemical substance (yeast gene YNL192W): 1.1
The level of expressed mRNA in the presence of chemical substance/The level of expressed mRNA in the absence of chemical substance (yeast gene YNL231C): 1.8
The level of expressed mRNA in the presence of chemical substance/The level of expressed mRNA in the absence of chemical substance (yeast gene YNL322C): 0.7
The level of expressed mRNA in the presence of chemical substance/The level of expressed mRNA in the absence of chemical substance (yeast gene YNL331C): 0.9
The level of expressed mRNA in the presence of chemical substance/The level of expressed mRNA in the absence of chemical substance (yeast gene YNL332W): 1.2
The level of expressed mRNA in the presence of chemical substance/The level of expressed mRNA in the absence of chemical substance (yeast gene YNR019W): 1.0
The level of expressed mRNA in the presence of chemical substance/The level of expressed mRNA in the absence of chemical substance (yeast gene YNR033W): 1.1
The level of expressed mRNA in the presence of chemical substance/The level of expressed mRNA in the absence of chemical substance (yeast gene YNR059W): 0.8
The level of expressed mRNA in the presence of chemical substance/The level of expressed mRNA in the absence of chemical substance (yeast gene YOL058W): 1.3
level of expressed mRNA in the presence/in the absence of chemical substance (yeast gene YOL086C): 1.3
level of expressed mRNA in the presence/in the absence of chemical substance (yeast gene YOL108C): 1.0
level of expressed mRNA in the presence/in the absence of chemical substance (yeast gene YOL116W): 0.6
The level of expressed mRNA in the presence of chemical substance/The level of expressed mRNA in the absence of chemical substance (yeast gene YOL126C): 1.1
The level of expressed mRNA in the presence of chemical substance/The level of expressed mRNA in the absence of chemical substance (yeast gene YOL153C): 1.9
level of expressed mRNA in the presence/in the absence of chemical substance (yeast gene YOL156W): 0.9
The level of expressed mRNA in the presence of chemical substance/The level of expressed mRNA in the absence of chemical substance (yeast gene YOL165C): 0.8
level of expressed mRNA in the presence/in the absence of chemical substance (yeast gene YOR002W): 0.5
level of expressed mRNA in the presence/in the absence of chemical substance (yeast gene YOR085W): 0.8
The level of expressed mRNA in the presence of chemical substance/The level of expressed mRNA in the absence of chemical substance (yeast gene YOR099W): 1.1
level of expressed mRNA in the presence/in the absence of chemical substance (yeast gene YOR103C): 1.2
level of expressed mRNA in the presence/in the absence of chemical substance (yeast gene YOR108W): 0.7
level of expressed mRNA in the presence/in the absence of chemical substance (yeast gene YOR128C): 0.5
The level of expressed mRNA in the presence of chemical substance/The level of expressed mRNA in the absence of chemical substance (yeast gene YOR130C): 0.9
level of expressed mRNA in the presence/in the absence of chemical substance (yeast gene YOR142W): 0.8
level of expressed mRNA in the presence/in the absence of chemical substance (yeast gene YOR176W): 1.3
level of expressed mRNA in the presence/in the absence of chemical substance (yeast gene YOR178C): 1.7
level of expressed mRNA in the presence/in the absence of chemical substance (yeast gene YOR251C): 0.9
The level of expressed mRNA in the presence of chemical substance/The level of expressed mRNA in the absence of chemical substance (yeast gene YOR336W): 1.0
The level of expressed mRNA in the presence of chemical substance/The level of expressed mRNA in the absence of chemical substance (yeast gene YOR347C): 1.2
level of expressed mRNA in the presence/in the absence of chemical substance (yeast gene YOR348C): 0.7
The level of expressed mRNA in the presence of chemical substance/The level of expressed mRNA in the absence of chemical substance (yeast gene YPL017C): 1.0
level of expressed mRNA in the presence/in the absence of chemical substance (yeast gene YPL028W): 1.4
level of expressed mRNA in the presence/in the absence of chemical substance (yeast gene YPL057C): 1.0
level of expressed mRNA in the presence/in the absence of chemical substance (yeast gene YPL135W): 1.1
level of expressed mRNA in the presence/in the absence of chemical substance (yeast gene YPL148C): 0.7
The level of expressed mRNA in the presence of chemical substance/The level of expressed mRNA in the absence of chemical substance (yeast gene YPR026W): 1.2
level of expressed mRNA in the presence/in the absence of chemical substance (yeast gene YPR113W): 0.7
level of expressed mRNA in the presence/in the absence of chemical substance (yeast gene YPR165W): 0.8
The level of expressed mRNA in the presence of chemical substance/The level of expressed mRNA in the absence of chemical substance (yeast gene YPR167C): 1.3
level of expressed mRNA in the presence/in the absence of chemical substance (yeast gene YPR183W): 1.2
